The record followed here is patent publication US5177251A, “Halogenated tetraenyl prostaglandin derivatives” (G. D. Searle & Co., priority 1991, dated 1993).

Where only a bound is given, the exact number is not on record here.

Data set [1] relates to ethanol-induced gastric lesions. The data set can be described thus: Ethanol induced gastric lesion assay in rats (cytoprotective). The data set is classed as in vivo, male Charles River rats. Particulars: rat, oral, 30 minutes before absolute ethanol; read-out: Ethanol-Induced Gastric Lesion *MED (Minimal effective dose). The protocol:
In the assay, 0.005-0.5 mg/kg is orally administered to adult 180-220 gram male Charles River rats which have been deprived of food for 24 hours. Thirty minutes later, 1.0 ml of absolute ethanol is administered intragastrically. The rats are sacrificed 60 minutes after alcohol administration and the gastric mucosa are visually examined for the presence of lesions. The number and severity of lesions are scored. A compound is judged active at the concentration evaluated if it provides a statistically significant reduction in the number and/or severity of lesions compared to the control group.

For data set [2], the system named is diarrhea. The data set can be described thus: Diarrheal assay in rats. The class given is in vivo, male Charles River rats. Particulars: intragastric, up to 8 hours. The protocol:
(§1) Diarrhea is an undesirable side effect commonly associated with antisecretory and cytoprotective prostaglandins. […] Groups of 6 adult male Charles River rats weight rang®180 to 200 g, are fasted for 24 hours prior to administering the test substance. The prostaglandin to be tested is administered intragastrically in iso-osmotic phosphate buffer at a volume of 10 ml/kg at doses ranging from 100 to 3000 μg/kg. Control animals receive only the vehicle. The rats are placed in individual wire mesh cages and t he trays lined with brown paper. Diarrhea is assessed at hourly intervals on all or none basis for up to 8 hours after administration of the prostaglandin. Diarrhea is defined as any loose or watery stool. ED50 values are assessed for each hourly diarrheagenic response.

A short description of data set [3]: Acid stability in acetic acid:THF:water, thin layer chromatography. The class given is physicochemical. Particulars: 3:1:1 acetic acid:THF:water, room temperature, TLC, all time points. On the procedure:
Comparison of Acid Stability of Compound of Example 1 with its parent non-fluorinated analog.
Each compound (4 mg) was separately dissolved in 0.4 ml of a 3:1:1 solution of acetic acid:THF:water and kept at room temperature. Relative decomposition was assessed by thin layer chromatography analysis of aliquots withdrawn at 30 minutes, 1,2, 4 and 6 hours.

Data set [4] concerns gastric acid secretion. The data set can be described thus: Gastric acid secretion assay in dogs (Pavlov gastric pouch, meal-stimulated). The class given is in vivo, dog (adult female beagles). To be noted: into gastric pouch; for ED50: Canis lupus familiaris, dog, total acid output over 4 hours after feeding, read-out: Gastric Antisecretory (Dog) ED50; for Gastric Antisecretory (Dog), % inhibition at 0.3: at 0.3 (column unit μg/kg). From the text: The standard test used to detect gastric antisecretory activity is described as follows.
Adult female beagles, 6-11 kg body weight, were surgically prepared with innervated (Pavlov) gastric pouches that were drained by Thomas-type gastric cannulae. Following surgical recovery, each dog was trained to stand quietly in a dog restraining sling and was conscious for all studies. Experiments began at least 3 weeks after surgery, and no dog was used more than once per week.
Dogs were food-deprived with access to water for 24 hours prior to experiments. Following a 30 minute basal collection period, the prostaglandins or vehicle were administered into the gastric pouch in a 2-3 ml volume. Thirty minutes later the gastric pouch was emptied and gastric secretion was stimulated by feeding 10-12 oz of dog food (Fromm All Beef, Federal Foods Inc., Thiensville, Wis.). Gastric juice samples were collected from the pouch by gravity drainage over a 4 hour period at 30 minute intervals. The volume of secretion was measured (ml/30 min), and the acidity (mequiv/L) was determined by electrometric titration to pH 7.0 with 0.1 N NaOH. These two parameters were multiplied to obtain the total acid output (mequiv/30 minutes) for each collection period.
Percent reduction of total acid output from control was calculated over each 4 hour experiment for doses of prostaglandin. ED50 values and 95% confidence limits were determined from inhibition of secretion curves.

The nature of data set [5]: Diarrheal assay in rats. The class given is in vivo, male Charles River rats. To be noted: in vivo, po; rat, intragastric, up to 8 hours; read-out: Diarrhea Rat ED50. The protocol:
as §1

Consider `COC(=O)CC/C=C\CC[C@H]1C(=O)C[C@@H](O)[C@@H]1/C=C/C[C@@](O)(/C=C/C1=CCCC1)CF` (relative stereo) [Example 1, (±)-methyl 7-[2β-[6-(1-cyclopenten-1-yl)-4R-(fluoromethyl)-4-hydroxy-1E,5E-hexadienyl]-3α-hydroxy-5-oxo-lo-cyclopentyl]-4Z-heptenoate], for which the minimal effective dose in data set [1] is 1 µg/kg. For the same molecule, the “Diarrhea Rat ED50” value in data set [2] was over 3160 μ/kg. The “decomposition at 30 minutes, 1, 2, 4 and 6 hours” value in data set [3] is given as “virtually no decomposition products were observed”.
Regarding `COC(=O)CC/C=C\CC[C@H]1C(=O)C[C@@H](O)[C@@H]1/C=C/C[C@@](O)(/C=C/C1=CCCC1)C(F)F` (relative stereo) [Example 3, (±)-methyl 7-[2β-[6-(1-cyclopenten-1-yl)-4R-(difluoromethyl)-4-hydroxy-1E,5E-hexadienyl]-3α-hydroxy-5-oxo-1α-cyclopentyl]-4Z-heptenoate], the minimal effective dose in data set [1] was 10 µg/kg. Also, in data set [4], the ED50 was over 1 µg/kg. For the same molecule, the “Diarrhea Rat ED50” value in data set [2] is over 3160 μ/kg.
The matching figures for `COC(=O)CC/C=C\CC[C@H]1C(=O)C[C@@H](O)[C@@H]1/C=C/C[C@@](O)(/C=C/C1=CCCC1)C(F)(F)F` (relative stereo) [Example 4, (±)-methyl 7-[2β-[6-(1-cyclopenten-1yl)-4R-hydroxy-4-(trifluoromethyl)-1E,5E-hexadienyl]-3α-hydroxy-5-oxo-1α-cyclopentyl]-4Z-heptenoate]: 100 µg/kg, over 0.1 µg/kg and over 3160 μ/kg.
In the case of `COC(=O)CC/C=C\CC[C@H]1C(=O)C[C@@H](O)[C@@H]1/C=C/C[C@@](O)(/C=C/C1=CCCC1)CCl` (relative stereo) [Example 5, (±)-methyl 7-[2β-[4R-(chloromethyl)-6-(1-cyclopenten-1-yl)-4-hydroxy-1E, 5E-hexadienyl]-3α-hydroxy-5-oxo-1α-cyclopentyl]-4Z-heptenoate], in data set [1], the minimal effective dose stood at 10 µg/kg. The ED50 in data set [4] was over 0.1 µg/kg.
Turning to `COC(=O)CC/C=C\CC[C@H]1C(=O)C[C@@H](O)[C@@H]1/C=C/C[C@@](C)(O)/C=C/C=C/C(F)(F)F` (relative stereo) [Example 6, (±)-methyl 11α,16R-dihydroxy-16-methyl-9-oxo-20-(trifluoromethyl) prosta-4Z,13E,17E,19E-tetraen-1-oate], in data set [4], the “Gastric Antisecretory (Dog), % inhibition at 0.3” value is 84%.
Turning to `COC(=O)CC/C=C\CC[C@H]1C(=O)C[C@@H](O)[C@@H]1/C=C/C[C@@](C)(O)/C=C/C=C(\C)C(F)(F)F` (relative stereo) [Example 7, (±)-methyl 11α,16R-dihydroxy-16,20-dimethyl-9-oxo-20-(trifluoromethyl) prosta-4Z,13E,17E, 19E-tetraen-1-oate], the minimal effective dose in data set [1] was 50 µg/kg. In addition, in data set [4], the “Gastric Antisecretory (Dog), % inhibition at 0.3” value was 74%.
For the molecule `COC(=O)CC/C=C\CC[C@H]1C(=O)C[C@@H](O)[C@@H]1/C=C/C[C@@](C)(O)/C=C/C(F)=C(C)C` (relative stereo) [Example 8, (±)-methyl 19-fluoro-11α,16R-dihydroxy-16,20,20-trimethyl-9-oxoprosta-4Z,13E,17E, 19-tetraen-1-oate], in data set [1], the minimal effective dose worked out at 1 µg/kg.
As for `COC(=O)CC/C=C\CC[C@H]1C(=O)C[C@@H](O)[C@@H]1/C=C/C[C@@](C)(O)/C=C/C=C(Cl)Cl` (relative stereo) [Example 9, (±)-methyl 20,20-dichloro-11α,16R-dihydroxy-16-methyl-9-oxoprosta-4Z,13E,17E,19-tetraen-1-oate], the minimal effective dose in data set [1] is 2.5 µg/kg. The TD50 at 8 h in data set [5] is 1000 µg/kg.
For `COC(=O)CC/C=C\CC[C@H]1C(=O)C[C@@H](O)[C@@H]1/C=C/C[C@@](O)(/C=C/C=C(C)C)CF` (relative stereo) [Example 10, methyl 16R-(fluoromethyl)-11α,16-dihydroxy-20,20-dimethyl-9-oxoprosta-4Z,13E,17E,19-tetraen-1-oate], the minimal effective dose in data set [1] was found to be 25 µg/kg. The ED50 in data set [4] is under 0.3 µg/kg. For the same molecule, the “Diarrhea Rat ED50” value in data set [2] is listed as over 3160 μ/kg.
As to `COC(=O)CC/C=C\CC[C@H]1C(=O)C[C@@H](O)[C@@H]1/C=C/C[C@@](O)(/C=C/C1=CCCC1)CF` [Example 2, methyl 7-[2β-[6-(1-cyclopenten-1-yl)-4R-(fluoromethyl)-4-hydroxy-1E,5E-hexadienyl]-3α-hydroxy-5-oxo-1R,1α-cyclopentyl]-4Z-heptenoate], the minimal effective dose in data set [1] was 1 µg/kg. Further, the “Diarrhea Rat ED50” value in data set [2] is recorded as over 3160 μ/kg.
